As a reminder, the IC50 is the point on the concentration scale where inhibition reaches its midpoint.

The record followed here is patent US12227771B2, “Expression systems and methods of use thereof” (Janssen Pharmaceutica NV, priority 2019, dated 2025).

“And” between values parts separate entries of the source, which are not always exact repeats. Equal entries are not always repeated. Where two headings read alike, the source gives them in different places.

Experiment [1] addresses T1, α9α10 nAChR (Homo sapiens, UniProt Q9GZZ6+Q9UGM1).
T1 construct: expressed in transfected cells; host or cells: HEK293T
The experiment can be described thus: cell-based. The format is cell-based. Conditions: for rank order of potency of antagonists: dose response curves. An excerpt: After three washes, the plates were placed in the FLIPR stage. […] Maximal FLIPR responses to ACh were plotted (FIGS. 3A-C).
Target sequence in this assay (Q9GZZ6 25-450): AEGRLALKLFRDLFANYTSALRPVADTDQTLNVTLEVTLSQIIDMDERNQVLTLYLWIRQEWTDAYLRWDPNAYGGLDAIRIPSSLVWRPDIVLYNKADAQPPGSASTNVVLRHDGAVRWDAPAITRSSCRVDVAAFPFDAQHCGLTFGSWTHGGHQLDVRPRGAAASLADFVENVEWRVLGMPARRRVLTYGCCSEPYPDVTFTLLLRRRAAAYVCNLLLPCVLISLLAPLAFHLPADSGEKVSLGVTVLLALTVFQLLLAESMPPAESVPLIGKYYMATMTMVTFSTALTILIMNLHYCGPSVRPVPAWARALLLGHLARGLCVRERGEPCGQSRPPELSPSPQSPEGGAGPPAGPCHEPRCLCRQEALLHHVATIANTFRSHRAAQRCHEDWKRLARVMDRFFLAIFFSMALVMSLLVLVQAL
Target sequence in this assay (Q9UGM1 23-479): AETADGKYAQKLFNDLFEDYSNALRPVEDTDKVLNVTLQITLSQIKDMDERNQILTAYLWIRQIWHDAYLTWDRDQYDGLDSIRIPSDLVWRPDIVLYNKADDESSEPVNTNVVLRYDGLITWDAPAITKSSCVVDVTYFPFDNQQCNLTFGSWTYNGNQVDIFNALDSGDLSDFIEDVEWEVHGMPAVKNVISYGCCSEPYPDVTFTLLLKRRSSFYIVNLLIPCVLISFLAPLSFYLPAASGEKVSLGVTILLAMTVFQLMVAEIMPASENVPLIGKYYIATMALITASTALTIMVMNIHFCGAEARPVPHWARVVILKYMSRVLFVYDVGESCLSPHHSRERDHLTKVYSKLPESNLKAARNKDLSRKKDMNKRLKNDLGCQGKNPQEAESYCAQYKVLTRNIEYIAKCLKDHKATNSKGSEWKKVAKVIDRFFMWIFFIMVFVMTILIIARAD

For experiment [2], the target named is T1, α9α10 nAChR. The experiment can be described thus: FLIPR calcium assay of HEK293T cells co-transfected with α9α10 nAChR and cDNA clones, response evoked by 200 μM ACh. As to conditions: 200 μM ACh; for FLIPR Response (Fold/Baseline): 180 s. The format is cell-based. How it is done:
Human embryonic kidney 293T (HEK293T) cells were cultured in high glucose DMEM medium supplemented with 10% FBS, sodium pyruvate and penicillin/streptomycin. Prior to transfection, cells were seeded at ˜80-90% confluence in 384-well fluorescence imaging plate reader (FLIPR) assay plates. After a 4 hour (hr) incubation, wells of cells were individually co-transfected with human α9α10 nAChR plus one of 20,000 clones from cDNA libraries encoding most all human proteins (Origene Technologies; Rockville, Md.; Broad Institute; Cambridge, Mass.) using Fugene HD (Promega; Madison, Wis.) according to the manufacture's protocol. After two days incubation, cells were washed three times with assay buffer (137 mM NaCl, 4 mM KCl, 2 mM CaCl2, 1 mM MgCl2, 5 mM glucose, 10 mM HEPES pH7.4) and loaded with Calcium5 dye (Molecular Devices; San Jose, Calif.) and 1.25 mM probenecid for 1 hr at room temperature (RT). After three washes, the plates were placed in the FLIPR stage.
To further characterize the regulation of α9α10 nAChR expression, HEK293T cells were co-transfected with α9α10 nAChR and each of CHAT, TMIE, TMEM100, TMEM132A, TMEM132C, TMEM132D, TMEM132E and TNFRSF10A individually and in combination (Table 2).
Target sequence in this assay (Q9UGM1 23-479): as above
Target sequence in this assay (Q9GZZ6 25-450): as the sequence (Q9GZZ6 25-450) above

For the compound `CN1[C@@H]2CC[C@H]1C[C@@H](OC(=O)C(CO)c1ccccc1)C2` (stereo partly drawn) [Atropine, atropine], the IC50 was found to be 340 µM in experiment [1] (HEK293T, α9α10 nAChR + CHAT + TMIE, 200 μM ACh, read-out: Antagonist IC50); 12.3 µM in experiment [1] (HEK293T, α9α10 nAChR + CHAT, 200 μM ACh, read-out: Antagonist IC50); 15.7 µM in experiment [1] (HEK293T, α9α10 nAChR + TMIE, 200 μM ACh, read-out: Antagonist IC50). For the same compound, the “rank order of potency of antagonists” value in experiment [1] (200 μM ACh) is “MLA>strychnine>atropine>nicotine”.
With `CN1CCCC1c1cccnc1` (stereo not drawn) [Nicotine, nicotine], in experiment [1] (Antagonist IC50), the IC50 was 384 µM and 544 µM and 1500 µM. Moreover, in experiment [1] (200 μM ACh), the “rank order of potency of antagonists” value is given as “MLA>strychnine>atropine>nicotine”.
With `O=C1C[C@@H]2OCC=C3CN4CC[C@]56c7ccccc7N1[C@H]5[C@H]2[C@H]3C[C@H]46` [Strychnine, strychnine], the concentration for half-maximal inhibition (IC50) in experiment [1] (Antagonist IC50, HEK293T, α9α10 nAChR + CHAT + TMIE, 200 μM ACh) was determined as 1.8 µM; in experiment [1] (Antagonist IC50, HEK293T, α9α10 nAChR + CHAT, 200 μM ACh), 1.3 µM; in experiment [1] (Antagonist IC50, HEK293T, α9α10 nAChR + TMIE, 200 μM ACh), 0.76 µM.
As for “TNFRSF10A: Tumor necrosis factor receptor superfamily member 10A, SEQ ID NO: 10, co-transfected cDNA clone”, the “FLIPR Response (Fold/Baseline)” value in experiment [2] (HEK293T co-transfected with α9α10 nAChR + CHAT plus the named gene) stood at 2.0 Fold/Baseline; in experiment [2] (HEK293T co-transfected with α9α10 nAChR plus the named gene) it was 0.4 Fold/Baseline. Besides, the “functional expression of co-transfected α9α10 nAChR in cDNA library screen” value in experiment [2] (HEK293T, 20,000 cDNA clones) is listed as “enabled functional expression”.
